The target of data set [1] is T1, rat calcitonin receptor (rat CTR) (Rattus norvegicus, UniProt P32214).
T1 construct: expressed in transfected cells
T1 sequence (P32214 25-516): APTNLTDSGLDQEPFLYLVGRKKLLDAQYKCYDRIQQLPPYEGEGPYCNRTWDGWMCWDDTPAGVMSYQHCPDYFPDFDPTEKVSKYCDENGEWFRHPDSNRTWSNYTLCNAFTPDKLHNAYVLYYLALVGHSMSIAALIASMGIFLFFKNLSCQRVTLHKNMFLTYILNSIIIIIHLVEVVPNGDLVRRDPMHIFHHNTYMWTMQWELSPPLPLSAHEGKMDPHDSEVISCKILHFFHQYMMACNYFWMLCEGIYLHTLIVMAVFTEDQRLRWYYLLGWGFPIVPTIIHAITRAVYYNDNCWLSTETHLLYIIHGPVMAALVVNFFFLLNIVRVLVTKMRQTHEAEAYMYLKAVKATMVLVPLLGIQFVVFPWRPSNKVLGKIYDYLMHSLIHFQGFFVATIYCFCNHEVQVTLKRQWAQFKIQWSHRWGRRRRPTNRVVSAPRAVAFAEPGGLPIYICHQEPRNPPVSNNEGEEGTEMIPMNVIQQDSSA
Nature of the data set: cAMP production in HEK cells with stable recombinant expression of rat calcitonin receptor (rat CTR). The data set is classed as cell-based. The settings on record: cAMP HTRF, assay buffer with 0.1% BSA, 30 minutes. The method, then: (§1) The functional activities of lipidated pramlintide analogue peptides, such as cAMP production, were tested in 1321N1 cell line with stable recombinant expression of human calcitonin receptor (hCTR) or human amylin receptor (calcitonin receptor co-expressed with receptor activity modifying protein, RAMP3) (hAMYR3) or HEK cells with stable recombinant expression of rat calcitonin receptor (rat CTR) or rat amylin receptor (calcitonin receptor co-expressed with receptor activity modifying protein, RAMP3) (Rat AMYR3). […]
(§2) The test peptide stock was prepared in DMSO and diluted in assay buffer to reach stated concentrations and transferred in duplicates into a 384-black shallow well microtitre assay plate (Corning #3676). Cells were added to the assay plate, incubated at room temperature for 30 minutes and the CAMP level measured using CAMP dynamic 2 HTRF kit (Cisbio, Cat #62AM4PEJ), following the two step protocol as per manufacturer's recommendations. The plates were read on an Envision (Perkin Elmer) using excitation wavelength of 320 nm and emission wavelengths of 620 nm & 665 nm.
(§3) Data was transformed to % Delta F as described in the manufacturer's guidelines and analyzed as percent activation of maximal amylin or calcitonin effect by 4-parameter logistic fit to determine EC50 values. […]
On the technique in general: Cyclic AMP is a second messenger, typically raised through Gs and lowered through Gi signalling.

Data set [2] addresses T2, human amylin receptor (calcitonin receptor co-expressed with receptor activity modifying protein, RAMP3) (hAMYR3) (Homo sapiens, UniProt O60896+P30988).
T2 construct: expressed in transfected cells
T2 sequence (P30988 25-474): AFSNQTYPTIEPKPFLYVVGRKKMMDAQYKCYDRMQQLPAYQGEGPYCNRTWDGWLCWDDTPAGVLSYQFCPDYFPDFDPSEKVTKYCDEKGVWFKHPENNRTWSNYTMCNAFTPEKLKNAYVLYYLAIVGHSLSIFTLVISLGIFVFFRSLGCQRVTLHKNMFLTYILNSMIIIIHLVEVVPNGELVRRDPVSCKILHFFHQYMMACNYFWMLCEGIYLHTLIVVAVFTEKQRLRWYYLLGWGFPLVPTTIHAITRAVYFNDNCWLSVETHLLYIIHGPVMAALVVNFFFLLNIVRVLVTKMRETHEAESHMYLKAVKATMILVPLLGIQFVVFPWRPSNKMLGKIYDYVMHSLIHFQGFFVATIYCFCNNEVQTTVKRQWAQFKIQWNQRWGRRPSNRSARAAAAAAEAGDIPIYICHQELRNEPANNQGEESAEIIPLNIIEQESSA
T2 sequence (O60896 24-148 partner): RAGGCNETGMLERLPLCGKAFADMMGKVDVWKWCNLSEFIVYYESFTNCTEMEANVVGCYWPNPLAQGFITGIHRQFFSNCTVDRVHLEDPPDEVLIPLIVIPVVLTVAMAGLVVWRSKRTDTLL
Put plainly: cAMP production in 1321N1 cells with stable recombinant expression of human amylin receptor (hAMYR3). The data set is classed as cell-based. The settings on record: cAMP production, 1321N1 cells expressing human amylin3 receptor. The method, then:
(§4) The functional activities of lipidated pramlintide analogue peptides, such as cAMP production, were tested in 1321N1 cell line with stable recombinant expression of human calcitonin receptor (hCTR) or human amylin receptor (calcitonin receptor co-expressed with receptor activity modifying protein, RAMP3) (hAMYR3) or HEK cells with stable recombinant expression of rat calcitonin receptor (rat CTR) or rat amylin receptor (calcitonin receptor co-expressed with receptor activity modifying protein, RAMP3) (Rat AMYR3).
(§5) Cryopreserved cell stock was thawed rapidly in a water-bath, suspended in assay buffer (0.1% BSA (Sigma #A3059) in HBSS (Sigma #H8264) with 25 mM HEPES, pH 7.4 and containing 0.5 mM IB MX (Sigma #17018)) and spun at 240×g for 5 minutes. Cells were re-suspended in assay buffer at a batch-dependent optimized concentration (e.g. hCTR cells at 0.125×10^5 cells/mL, hAMYR3 cells at 0.125×10^5 cells/mL, rat CTR cells at 1×10^5 cells/mL, rat AMYR3 at 2×10^5 cells/mL).
as §2
(§6) Data was transformed to % Delta F as described in the manufacturer's guidelines and analyzed as percent activation of maximal amylin or calcitonin effect by 4-parameter logistic fit to determine EC50 values. The selectivity of a peptide to hAMYR vs hCTR is defined as a ratio of EC50 values at the two receptors.

Data set [3] relates to lean rats. Put plainly: Rat acute food intake study. The data set is classed as in vivo, Sprague Dawley rats. The settings on record: 20 nmol/kg subcutaneously. The method, then:
Male Sprague Dawley rats were obtained from Taconic Denmark, ApS at approximately 7 weeks of age. . . . Rats were implanted with a microchip for identification, housed 4/cage with enrichment, free access to food and water, and allowed one week acclimatisation while non-invasive characterization was performed. Rats were on a 12:12 light:dark cycle that switches at 1 pm:1 am. Food intake was monitored via the HM2 system (Lafayette Instrument) that allows for monitoring in a home cage. As each rat enters an access tunnel to feed, an IR beam is broken, and the implanted microchip is read. Resulting changes to food weight is then assigned to the specific animal. Social order has shown no impact to overall feeding patterns and amounts.
Rats were sorted into groups based on Day-1 body weight and 24-hour accumulated food intake (n=7 per group). On Day 0 rats were weighed, then fasted for 6 hours. Thirty (30) minutes prior to the reintroduction of food, rats were dosed subcutaneously (5 ml/kg) with 20 nmol/kg of test compound or 60 nmol/kg peptide 1 (pramlintide) diluted in an appropriate vehicle, after which food was returned, and lights went out. Automated food intake was monitored for the following 3 days, and rats were weighed once per day.
Food intake per rat was batched into 1-hour intervals and integrated into Gubra's GubraView data management system. Discrete food intake data was exported into MS Excel from which cumulative food intake data was generated. Cumulative food intake data was then transposed into GraphPad Prism (v8.0.1) for analysis of dark period feeding

Data set [4] deals with T3, human calcitonin receptor (hCTR) (Homo sapiens, UniProt P30988).
T3 construct: expressed in transfected cells
T3 sequence (P30988 25-474): T2 sequence (P30988 25-474)
Nature of the data set: cAMP production in 1321N1 cells with stable recombinant expression of human calcitonin receptor (hCTR). The data set is classed as cell-based. The settings on record: 1321N1 cells expressing human calcitonin receptor. The method, then: as §4, §5, §2, §6

Data set [5] can be described thus: in vivo. As to conditions: male, Sprague-Dawley, rat, 20 nmol/kg.
Experimental: PK studies were performed to determine the half-life (T1/2) of test peptides. T1/2 describes the time taken for the maximum plasma concentration (Cmax) of a test substance to halve its steady-state concentration when in circulation.
The animals were 6-8 weeks old with body weights of 200-300 g on the dosing date. The animals were housed in a 12-hour light/12-hour dark cycle environment and were fasted overnight before dosing. The body weight of the animals were recorded before dosing, 24 h and 48 h post dosing.
Test articles were administered at 20 nmol/kg. Blood samples were collected from each animal via Jugular vein.
The blood samples were transferred into eppendorf low binding tube containing K2EDTA. Above 0.150 mL blood were collected at each time point. Blood samples were centrifuged at 4,000 g for 5 minutes at 4° C. to obtain plasma. The plasma samples were stored frozen at −75±15° C. until analysis.
Concentrations of the test articles in the plasma samples were analyzed using a LC-MS/MS method. […] The pharmacokinetic parameters of test articles were calculated using a non-compartmental approach with Phoenix™ WinNonlin®6.1.
The following pharmacokinetic parameters were calculated, whenever possible from the plasma concentration versus time data: • IV administration: T1/2, C0, AUClast, AUCinf, MRTinf, CI, Vss, Number of Points for Regression. • SC administration: Tmax, Cmax, AUClast, AUCinf, MRTinf, F, Number of Points for Regression.
The target of data set [6] is T4, rat amylin receptor (calcitonin receptor co-expressed with receptor activity modifying protein, RAMP3) (Rat AMYR3) (Rattus norvegicus, UniProt P32214+Q9JJ73).
T4 construct: expressed in transfected cells
T4 sequence (P32214 25-516): T1 sequence (P32214 25-516)
T4 sequence (Q9JJ73 23-147 partner): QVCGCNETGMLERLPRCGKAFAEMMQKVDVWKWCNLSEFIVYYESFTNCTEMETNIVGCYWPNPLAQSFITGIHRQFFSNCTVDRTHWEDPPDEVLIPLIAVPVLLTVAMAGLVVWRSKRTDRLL
Put plainly: cAMP production in HEK cells with stable recombinant expression of rat amylin receptor (Rat AMYR3). The data set is classed as cell-based. As to conditions: cAMP HTRF, assay buffer with 0.1% BSA, 30 minutes. The method, then:
as §1, §2, §3

Structures are written as SMILES. Numbered stars: 1 amine (or outer) side, 2 acyl side, 3 side chain; on linkers, the order of the positions; unused ones are H or OH. Bridge positions count the residues as written; N and C are the ends. Side chains are listed from the residue outwards. Peptide text beside a SMILES is read from it. * marks the point of attachment. C20 diacid = O=C(O)CCCCCCCCCCCCCCCCCCC(=O)*; γGlu = O=C(O)[C@H](CCC(=O)[*:2])N[*:1]

For orientation: EC50 means the midpoint of the concentration-response curve. By half-life is commonly meant the time in which the quantity being followed falls by half. A low value points to fast loss. Consider `CC[C@H](C)[C@H](NC(=O)[C@H](C)NC(=O)[C@@H]1CCCN1C(=O)[C@H](Cc1ccccc1)NC(=O)[C@H](CC(N)=O)NC(=O)[C@@H]1CCCN1C(=O)[C@H](CO)NC(=O)[C@H](CO)NC(=O)[C@H](Cc1c[nH]cn1)NC(=O)[C@@H](NC(=O)[C@H](CC(C)C)NC(=O)[C@H](Cc1ccccc1)NC(=O)[C@H](CC(N)=O)NC(=O)[C@H](C)NC(=O)[C@H](CC(C)C)NC(=O)[C@H](CCCNC(=N)N)NC(=O)[C@H](CCC(N)=O)NC(=O)[C@@H](NC(=O)[C@H](C)NC(=O)[C@@H]1CSSC[C@H](NC(=O)[C@@H](N)CCCCNC(=O)CC[C@H](NC(=O)CC[C@H](NC(=O)CCCCCCCCCCCCCCCCCCC(=O)O)C(=O)O)C(=O)O)C(=O)N[C@@H](CC(N)=O)C(=O)N[C@@H]([C@@H](C)O)C(=O)N[C@@H](C)C(=O)N[C@@H]([C@@H](C)O)C(=O)N1)[C@@H](C)O)C(C)C)C(=O)N[C@@H](CC(C)C)C(=O)N[C@@H](CO)C(=O)N1CCC[C@H]1C(=O)N[C@H](C(=O)N[C@@H](CC(N)=O)C(=O)N[C@H](C(=O)NCC(=O)N[C@@H](CO)C(=O)N[C@@H](CC(N)=O)C(=O)N[C@H](C(=O)N[C@@H](Cc1ccc(O)cc1)C(N)=O)[C@@H](C)O)C(C)C)[C@@H](C)O` [Peptide 115] (H-K([γGlu-γGlu-C20 diacid])CNTATCATQRLANFLVHSSPNFPAILSPTNVGSNTY-NH2; disulfide 2-7; N-terminus assumed), for which the EC50 in data set [1] worked out at 22.6 nM; in data set [2] it was 0.703 nM; in data set [4], 7.65 nM; in data set [6] it was 0.0226 nM. For the same compound, the “Cummulative food intake (% vehicle treated intake) At 12 h” value in data set [3] is recorded as 42.4 % vehicle treated intake. Also, the “Cummulative food intake (% vehicle treated intake) At 24 h” value in data set [3] worked out at 41.3 % vehicle treated intake. Further, the “Cummulative food intake (% vehicle treated intake) At 48 h” value in data set [3] is given as 52.2 % vehicle treated intake. In addition, the half-life in data set [5] (iv) was 14.9 h; in data set [5] (sc), 20.3 h.

For `CC[C@H](C)[C@H](NC(=O)[C@@H]1CCCN1C(=O)CNC(=O)[C@H](Cc1ccccc1)NC(=O)[C@H](CC(N)=O)NC(=O)[C@H](CC(N)=O)NC(=O)[C@H](CO)NC(=O)[C@H](CO)NC(=O)[C@H](Cc1c[nH]cn1)NC(=O)[C@@H](NC(=O)[C@H](CC(C)C)NC(=O)[C@H](Cc1ccccc1)NC(=O)[C@H](CC(N)=O)NC(=O)[C@H](C)NC(=O)[C@H](CC(C)C)NC(=O)[C@H](CCCNC(=N)N)NC(=O)[C@H](CCC(N)=O)NC(=O)[C@@H](NC(=O)[C@H](C)NC(=O)[C@@H]1CSSC[C@H](NC(=O)[C@@H](N)CCCCNC(=O)CC[C@H](NC(=O)CC[C@H](NC(=O)CCCCCCCCCCCCCCCCCCC(=O)O)C(=O)O)C(=O)O)C(=O)N[C@@H](CC(N)=O)C(=O)N[C@@H]([C@@H](C)O)C(=O)N[C@@H](C)C(=O)N[C@@H]([C@@H](C)O)C(=O)N1)[C@@H](C)O)C(C)C)C(=O)N[C@@H](CC(C)C)C(=O)N1CCC[C@H]1C(=O)N1CCC[C@H]1C(=O)N[C@H](C(=O)N[C@@H](CC(N)=O)C(=O)N[C@H](C(=O)NCC(=O)N[C@@H](CO)C(=O)N[C@@H](CCCNC(=N)N)C(=O)N[C@H](C(=O)N[C@@H](Cc1ccc(O)cc1)C(N)=O)[C@@H](C)O)C(C)C)[C@@H](C)O` [Peptide 114] (H-K([γGlu-γGlu-C20 diacid])CNTATCATQRLANFLVHSSNNFGPILPPTNVGSRTY-NH2; disulfide 2-7; N-terminus assumed), the EC50 in data set [1] amounted to 4.87 nM; in data set [2] it was 1.32 nM; in data set [4], 15.8 nM; in data set [6], 0.0122 nM. In data set [3], the “Cummulative food intake (% vehicle treated intake) At 12 h” value worked out at 42.3 % vehicle treated intake. In data set [3], the “Cummulative food intake (% vehicle treated intake) At 24 h” value is reported as 45.1 % vehicle treated intake. Further, the “Cummulative food intake (% vehicle treated intake) At 48 h” value in data set [3] worked out at 53.8 % vehicle treated intake. Further, the figures for the half-life in data set [5] (iv) and in data set [5] (sc) were 13 h and 21.6 h, respectively.

(Values after patent US12371464B2, “Polypeptides and uses thereof” (MEDIMMUNE LIMITED, priority 2020, dated 2025).)
